Assay [1] has as its system CT-26 mouse colon cancer-induced cachexia. As to the kind of experiment: Time-to-progression study in CT-26 mouse colon cancer cachexia. It counts as in vivo. The following applies: for time-to-progression (days until body weight loss 20% or tumor volume 1,500 mm^3): cisplatin combination study, CDD866 once weekly; for time-to-progression (median days elapsed until an interruption criterion): everolimus combination study, after randomization and treatment start, CDD866 twice weekly. The method, then: Time-to-progression study was performed as a follow-up to assess if the combination of CDD866 and cisplatin or everolimus slows progression of cancer cachexia to the interruption criteria which was defined by body weight loss reaching to 20% or tumor volume exceeding 1,500 mm^3. The treatment regimen was the same as used in the therapeutic intervention study. Body weight and tumor volume were measured 2 to 3 times per week in the first 2 weeks and then every day until the end of experiment. The mice were euthanized with CO2, when body weight loss was close to 20% or tumor volume exceeded 1,500 mm^3.
(§1) Values are expressed as mean±SEM. Statistical analysis was carried out using Sidak's multiple comparison test following analysis of variance to compare the treatment groups to the control groups (non-tumor and tumor-bearing), anti-cancer agent alone (cisplatin or everolimus) or CDD866 alone in the therapeutic intervention study, and Dunn's multiple comparisons test for time-to-progression study. Differences were considered to be significant when the probability value was <0.05. Statistical analyses were performed by GraphPad Prism (GraphPad Software, Inc., La Jolla, Calif., USA). Body weight was expressed as % change from day 0 as the start of treatment. Tumor volumes in cubic mm were calculated according to the formula (length×width^2)/2. Muscle weight was normalized to the body weight on the day of cell inoculation (initial body weight) and then expressed as % change from the non-tumor control group.
Extensive tumor growth and subsequent body weight loss are important predictors of mortality in cancer patients. We therefore wanted to evaluate whether the combination of CDD866 and cisplatin has an impact on the length of survival. For ethical reason we abstained from classical survival studies. Instead, each mouse was individually euthanized when experiencing either a body weight loss exceeding 20% of initial body weight, or reaching a tumor volume of 1,500 mm^3, determined as time-to-progression.

For assay [2], the system named is non-tumor bearing mice. As to the kind of experiment: Therapeutic intervention study, non-tumor bearing (healthy control) mice. It counts as in vivo, mouse. The following applies: for body weight in healthy control animals: cisplatin study, non-tumor mice; for weight of tibialis anterior, gastrocnemius-soleus-plantaris complex and quadriceps muscles in non-tumor bearing group / body weight gain in non-tumor bearing group: everolimus study; for body weight gain in non-tumor bearing group: up to day 14, CDD866 20 mg/kg s.c. twice weekly, everolimus 5 mg/kg p.o. once daily. The procedure: (§2) Adult male Balb/cJRj mice at the age of 11 to 12 weeks were purchased from Janvier Laboratories (Le Genest St Isle, France). Mice were acclimated to the facility for 7 days. Animals were housed in groups of 5 or less animals at 25° C. with a 12:12 h light-dark cycle. They were fed a standard laboratory diet containing 18.2% protein and 3.0% fat with an energy content of 15.8 MJ/kg (NAFAG 3890, Kliba, Basel, Switzerland). Food and water were provided ad libitum.
(§3) Mouse colon cancer cell line CT-26 was cultured in RPMI 1640 medium supplemented with 10% heat inactivated fetal bovine serum and antibiotic-antimycotic solution at 37° C. with 5% CO2. CT-26 cells were harvested by treatment with Accutase® (PAA Laboratories GmbH, Pasching, Austria) and suspended in a solution containing 50% PBS and 50% BD Matrigel™ Matrix without phenol red (catalog number 356237, BD Biosciences, Bedford, Mass., USA). A 0.1 mL of cell suspension containing 3×10^5 cells was inoculated subcutaneously into the left flank of mice. When tumors were palpable, mice bearing tumors with acceptable morphology and size were randomized to produce groups balanced with respect to mean and range of tumor sizes and body weight. Treatments were initiated on the day of randomization. Therapeutic intervention study was conducted to evaluate the effect of CDD866, either alone or in combination with anti-cancer agents. CDD866 was administered at 20 mg/kg s.c., once or twice weekly in a volume of 5 mL/kg. Cisplatin was administered at 1 mg/kg i.p. twice a week. Everolimus was administered at 5 mg/kg p.o. once daily. In the combination groups, cisplatin or everolimus treatment was combined with once or twice weekly subcutaneous treatment of CDD866, respectively. Body weight and tumor volume were measured 2 to 3 times per week. At the end of the experiment, the mice were euthanized with CO2, and tumor, tibialis anterior, gastrocnemius-soleus-plantaris complex, quadriceps were collected and weighed.
as §1

Assay [3] has as its system CT-26 mouse colon cancer-induced cachexia. Briefly: Therapeutic intervention study in CT-26 mouse colon cancer-induced cachexia (tumor-bearing mice). The format is in vivo. The following applies: for body weight loss (of initial body weight): tumor-bearing animals, ten days after starting treatment, CDD866 20 mg/kg s.c. once weekly, cisplatin 1 mg/kg i.p. twice a week; for CT-26-induced loss in body weight: day 14, CDD866 twice weekly; for CT-26-induced muscle weight loss: tibialis anterior, gastrocnemius-soleus-plantaris complex, quadriceps. The method, then: as §2, §3, §1

The mark [4] stands for this setting: cisplatin study, CT-26 tumor-bearing mice.
The mark [5] stands for this setting: cisplatin study, CT-26 tumor-bearing mice, normalized to initial body weight, versus non-tumor control.

With “CDD866: murinized version of bimagrumab, where the human Fc region of the antibody has been replaced by a mouse Fc”, in assay [1], the “time-to-progression (days until body weight loss 20% or tumor volume 1,500 mm^3)” value amounted to 16 days and the “time-to-progression (median days elapsed until an interruption criterion)” value stood at 21 days. Further, in assay [2], the “body weight in healthy control animals” value is “marked body weight gain”; the “weight of tibialis anterior, gastrocnemius-soleus-plantaris complex and quadriceps muscles in non-tumor bearing group” value is on record as “significantly increased”; the “body weight gain in non-tumor bearing group” value was “increased significantly”. Also, the “tumor progression / CT-26 tumor volume and weight” value in assay [3] (setting [4]) is reported as “neither accelerated tumor progression”. The “gastrocnemius muscle weight loss” value in assay [3] (setting [5]) amounted to 13%. The “body weight loss (of initial body weight)” value in assay [3] (cisplatin study) is on record as 3%. In assay [3] (everolimus study), the CT-26 tumor weight result is listed as “no significant effect”, the “CT-26-induced loss in body weight” value is recorded as “completely prevented” and the “CT-26-induced muscle weight loss” value is recorded as “significantly reduced”.
For `CO[C@H]1C[C@@H]2CC[C@@H](C)[C@@](O)(O2)C(=O)C(=O)N2CCCC[C@H]2C(=O)O[C@H]([C@H](C)C[C@@H]2CC[C@@H](OCCO)[C@H](OC)C2)CC(=O)[C@H](C)/C=C(\C)[C@@H](O)[C@@H](OC)C(=O)[C@H](C)C[C@H](C)/C=C/C=C/C=C/1C` [everolimus, (1R,9S,12S,15R,16E,18R,19R,21R,23S,24E,26E,28E,30S,32S,35R)-1,18-d ihydroxy-12-{(1 R)-2-[(1S,3R,4R)-4-(2-hydroxyethoxy)-3-methoxycyclohexyl]-1-methylethyl}-19,30-dimethoxy-15,17,21,23,29,35-hexamethyl-11,36-dioxa-4-aza-tricyclo[30.3.1.04,9]hexatriaconta-16,24,26,28-tetraene-2,3,10,14,20-pentaone], in assay [1], the “time-to-progression (median days elapsed until an interruption criterion)” value was determined as 23 days. In assay [2], the “weight of tibialis anterior, gastrocnemius-soleus-plantaris complex and quadriceps muscles in non-tumor bearing group” value was “not affected”; the “body weight gain in non-tumor bearing group” value is reported as “not affected significantly”. Moreover, in assay [3] (everolimus study), the CT-26 tumor growth entry is listed as “slowed CT-26 tumor growth”, the CT-26 tumor weight result is recorded as “significantly reduced”, the “CT-26-induced loss in body weight” value is “completely prevented” and the “CT-26-induced muscle weight loss” value was “significantly reduced”.
For `N.N.[Cl][Pt][Cl]` [cisplatin, cis-diamminedichloro-platinum(II)], in assay [1], the “time-to-progression (days until body weight loss 20% or tumor volume 1,500 mm^3)” value came to 12 days. For the same compound, the “body weight in healthy control animals” value in assay [2] is “did not affect body weight”. Further, in assay [3] (setting [4]), the “tumor progression / CT-26 tumor volume and weight” value is recorded as “reduced CT-26 tumor weight to similar levels”. In assay [3] (setting [5]), the “gastrocnemius muscle weight loss” value is reported as 25% and the “tibialis anterior muscle wasting (muscle loss)” value is 34%. The “body weight loss (of initial body weight)” value in assay [3] (cisplatin study) is recorded as 20%.

The values above are taken from patent US11357851B2, “Uses of myostatin antagonists, combinations containing them and uses thereof” (Novartis AG, priority 2015, dated 2022).
